Experimental data: the supplement of paper PMC10307832

Key:
Experiment in all cases: relative viability (nuclei count vs DMSO), 5 days (fraction); higher = more cells survive
[1] = compound: CC1CC(=O)N(C2=CN=C(N=C2N1C3CCCC3)NC4=C(C=C(C=C4)C(=O)NC5CCN(CC5)C)OC)C [NPK76-II-72-1] + O=C(c1cc(Cc2n[nH]c(=O)c3ccccc23)ccc1F)N1CCN(C(=O)C2CC2)CC1 [Olaparib] (partner 8 µM)
Summary of the method: (§1)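 Each reported value is a median over duplicate plates. It expresses relative viability: treated-well nuclei count divided by vehicle-well nuclei count. Lung cancer cell lines in 1536-well plates were dosed by pin tool a day after seeding, alone with one drug or with a fixed anchor-drug dose plus five library-drug doses (not always all listed) in √10 steps, and nuclei were counted after 5 days.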

[2] = compound: CC[C@@H]1C(=O)N(C)c2cnc(Nc3ccc(C(=O)NC4CCN(C)CC4)cc3OC)nc2N1C1CCCC1 [BI-2536] + O=C(CCCCCCC(=O)Nc1ccccc1)NO [Vorinostat] (partner 1 µM)
Summary of the method: as §1

[3] = compound: CC[C@@H]1C(=O)N(C)c2cnc(Nc3ccc(C(=O)NC4CCN(C)CC4)cc3OC)nc2N1C1CCCC1 [BI-2536] + CS(=O)(=O)N1CCN(Cc2cc3nc(-c4cccc5[nH]ncc45)nc(N4CCOCC4)c3s2)CC1 [Pictilisib] (partner 1 µM)
Summary of the method: as §1

[4] = compound: CC1CC(=O)N(C2=CN=C(N=C2N1C3CCCC3)NC4=C(C=C(C=C4)C(=O)NC5CCN(CC5)C)OC)C [NPK76-II-72-1] + Nc1nc2[nH]cc(CCc3ccc(C(=O)N[C@@H](CCC(=O)O)C(=O)O)cc3)c2c(=O)[nH]1 [Pemetrexed] (partner 0.2 µM)
Summary of the method: as §1

IA-LM showed a relative viability ([1]; first compound 0.01 µM) of 0.811, a relative viability ([1]; first compound 0.03162 µM) of 0.825 and a relative viability ([1]; first compound 0.1 µM) of 0.766. For the same cell line, the relative viability ([1]; first compound 0.3162 µM) was 0.788, the relative viability ([1]; first compound 1 µM) was 0.847 and the relative viability ([2]; first compound 0.01 µM) was 1.07. The relative viability ([2]; first compound 0.03162 µM) was 1.26, the relative viability ([2]; first compound 0.1 µM) was 0.692 and the relative viability ([2]; first compound 0.3162 µM) was 0.0844. For the same cell line, the relative viability ([2]; first compound 1 µM) was 0.0605, the relative viability ([3]; first compound 0.01 µM) was 0.346 and the relative viability ([3]; first compound 0.03162 µM) was 0.264. It also gave a relative viability ([3]; first compound 0.1 µM) of 0.0753, a relative viability ([3]; first compound 0.3162 µM) of 0.0992 and a relative viability ([3]; first compound 1 µM) of 0.0622.
Work on LC-2-ad yielded a relative viability ([1]; first compound 0.01 µM) of 0.673, a relative viability ([1]; first compound 0.03162 µM) of 0.72 and a relative viability ([1]; first compound 0.1 µM) of 0.702. The relative viability ([1]; first compound 0.3162 µM) was 0.704, the relative viability ([1]; first compound 1 µM) was 0.683 and the relative viability ([4]; first compound 0.01 µM) was 0.24. The relative viability ([4]; first compound 0.03162 µM) was 0.281, the relative viability ([4]; first compound 0.1 µM) was 0.269 and the relative viability ([4]; first compound 0.3162 µM) was 0.266. The relative viability ([4]; first compound 1 µM) was 0.272, the relative viability ([2]; first compound 0.01 µM) was 0.63 and the relative viability ([2]; first compound 0.03162 µM) was 0.274. For the same cell line, the relative viability ([2]; first compound 0.1 µM) was 0.181, the relative viability ([2]; first compound 0.3162 µM) was 0.198 and the relative viability ([2]; first compound 1 µM) was 0.221. For the same cell line, the relative viability ([3]; first compound 0.01 µM) was 0.552, the relative viability ([3]; first compound 0.03162 µM) was 0.192 and the relative viability ([3]; first compound 0.1 µM) was 0.0937. It also gave a relative viability ([3]; first compound 0.3162 µM) of 0.0909 and a relative viability ([3]; first compound 1 µM) of 0.0871.
LCLC-97TM1 was tested, and the relative viability ([1]; first compound 0.01 µM) was 0.357, the relative viability ([1]; first compound 0.03162 µM) was 0.394 and the relative viability ([1]; first compound 0.1 µM) was 0.346. The relative viability ([1]; first compound 0.3162 µM) was 0.249, the relative viability ([1]; first compound 1 µM) was 0.424 and the relative viability ([4]; first compound 0.01 µM) was 0.178. For the same cell line, the relative viability ([4]; first compound 0.03162 µM) was 0.196, the relative viability ([4]; first compound 0.1 µM) was 0.164 and the relative viability ([4]; first compound 0.3162 µM) was 0.158. The relative viability ([4]; first compound 1 µM) was 0.155, the relative viability ([2]; first compound 0.01 µM) was 0.721 and the relative viability ([2]; first compound 0.03162 µM) was 0.787. It also gave a relative viability ([2]; first compound 0.1 µM) of 0.0652, a relative viability ([2]; first compound 0.3162 µM) of 0.078 and a relative viability ([2]; first compound 1 µM) of 0.0571. It also gave a relative viability ([3]; first compound 0.01 µM) of 0.182, a relative viability ([3]; first compound 0.03162 µM) of 0.185 and a relative viability ([3]; first compound 0.1 µM) of 0.127. The relative viability ([3]; first compound 0.3162 µM) was 0.11 and the relative viability ([3]; first compound 1 µM) was 0.0962.
Work on LCLC-103H yielded a relative viability ([1]; first compound 0.03162 µM) of 0.744, a relative viability ([1]; first compound 0.1 µM) of 0.74 and a relative viability ([1]; first compound 0.3162 µM) of 0.796. For the same cell line, the relative viability ([1]; first compound 1 µM) was 0.759, the relative viability ([4]; first compound 0.03162 µM) was 0.441 and the relative viability ([4]; first compound 0.1 µM) was 0.425. The relative viability ([4]; first compound 0.3162 µM) was 0.472, the relative viability ([4]; first compound 1 µM) was 0.442 and the relative viability ([2]; first compound 0.01 µM) was 0.767. It also gave a relative viability ([2]; first compound 0.03162 µM) of 0.776, a relative viability ([2]; first compound 0.1 µM) of 0.265 and a relative viability ([2]; first compound 0.3162 µM) of 0.168. The relative viability ([2]; first compound 1 µM) was 0.239, the relative viability ([3]; first compound 0.01 µM) was 0.585 and the relative viability ([3]; first compound 0.03162 µM) was 0.568. The relative viability ([3]; first compound 0.1 µM) was 0.508, the relative viability ([3]; first compound 0.3162 µM) was 0.711 and the relative viability ([3]; first compound 1 µM) was 0.144.
